Results published in US9067966B2, “Lupeol-type triterpene derivatives as antivirals” (priority 2009, dated 2015).
Like-named read-outs stand apart in the source and are kept apart here.

Assays:
Type in all cases: cell-based
[1] = in vitro; conditions: human, CC50
Method: (§1) Compound was dissolved in DMSO to make 30 mM stock. Then the 30 mM stock is further diluted to 4 mM using DMSO. The 4 mM stock was used as the top concentration to carry out an 11-point, 3-fold dilution scheme using DMSO in a 96-well plate to make the compound dose plate. Compounds in the dose plate were transferred to a new 96-well plate (working plate) containing PBS with 0.05% pluronic acid. From this working plate, the compound solution was transferred to the 384-well assay plates.
For cytotoxicity assay the same amount of MT2 cells as in antivirus assay but without HIV-1 virus were added to the cytotoxicity plates. The cytotoxicity was measured by Cell Titer-Glo cell viability assay (Promega).

[2] = test system: HIV-1 strain CNHN24; assay: Anti-HIV-1 luciferase indicator assay in MT2 cells, CNHN24; conditions: for TI / Safety Index (CC50/IC50): MT2 cells
Method: as §1
(§2) Control compounds used in compound control wells were prepared and added to assay plates individually.
(§3) MT2 cells were mixed with HIV-1 strain NL4-3 (or IIIB, or CNHN24) and the cell/virus mixture was added to the aforementioned antivirus assay plates. After incubation in a 37° C., 5% CO2 incubator, the supernatant from the assay plate was transferred to a new 384-well plate containing the indicator cells with a fire fly luciferase gene under HIV-1 LTR control. The expression level of luciferase was related to HIV-1 infectivity and was measured by Bright-Glo kit (Promega).
(§4) Therapeutic index (TI) was determined by taking ratio of CC50/IC50

[3] = test system: HIV-1 strain NL4-3; assay: Anti-HIV-1 luciferase indicator assay in MT2 cells, NL4-3; conditions: viral strain NL4-3; for IC50: Human immunodeficiency virus 1, NL43, MT2, MT2 cells; for TI / Safety Index (CC50/IC50): MT2 cells
Method: as §1, §2, §3, §4

[4] = test system: HIV-1 strain IIIB; assay: Anti-HIV-1 luciferase indicator assay in MT2 cells, IIIB; conditions: for IC50: Human immunodeficiency virus 1, IIIB; for TI / Safety Index (CC50/IC50): MT2 cells
Method: as §1, §2, §3, §4

[5] = Human immunodeficiency virus 1, MT2, MT2 cells, viral strain CNHN24, read-out: IC50
[6] = MT2, MT2 cells, viral strain II B, read-out: IC50

Row | SMILES | CC50 [1] [µM] | IC50 [2, 5] [nM] | TI / Safety Index (CC50/IC50) ([2]; viral strain CNHN24) | IC50 ([3]; read-out: IC50) [nM] | TI / Safety Index (CC50/IC50) [3] | IC50 [4, 6] [nM] | TI / Safety Index (CC50/IC50) ([4]; viral strain II B) | IC50 ([2]; Human immunodeficiency virus 1, MT2) [nM] | IC50 ([4]; MT2) [nM] | IC50 [3] [nM]
1 | C=C(C)[C@@H]1CC[C@]2(C(=O)N[C@@H]3CC[C@H](CN4CCC(Cc5ccccc5)CC4)C3)CC[C@]3(C)[C@H](CC[C@@H]4[C@@]5(C)CC[C@H](OC(=O)CCCC(=O)O)C(C)(C)[C@@H]5CC[C@]43C)[C@@H]12 [Example 33, 5-((1R,3aS,5aR,5bR,7aR,9S,11aR,11bR,13aR,13bR)-3a-((1R,3S)-3-((4-benzylpiperidin-1-yl)methyl)cyclopentylcarbamoyl)-5a,5b,8,8,11a-pentamethyl-1-(prop-1-en-2-yl)icosahydro-1H-cyclopenta[a]chrysen-9-yloxy)-5-oxopentanoic acid] | 20 | 6700 | 2.98 | 6700 | 2.98 | 6700 | 2.98 | – | – | –
2 | C=C(C)[C@@H]1CC[C@]2(C(=O)N3CCN(CC)CC3)CC[C@]3(C)[C@H](CC[C@@H]4[C@@]5(C)CC[C@H](OC(=O)C6CC(C(=O)O)C6(C)C)C(C)(C)[C@@H]5CC[C@]43C)[C@@H]12 (stereo partly drawn) [Example 54, 3-(((1R,3aS,5aR,5bR,7aR,9S,11aR,11bR,13aR,13bR)-3a-(4-ethylpiperazine-1-carbonyl)-5a,5b,8,8,11a-pentamethyl-1-(prop-1-en-2-yl)icosahydro-1H-cyclopenta[a]chrysen-9-yloxy)carbonyl)-2,2-dimethylcyclobutanecarboxylic acid] | > 20 | 24 | 833 | 13 | 1538 | 5 | 4000 | – | – | –
3 | C=C(C)[C@@H]1CC[C@]2(C(=O)N[C@H]3C[C@@H](C(=O)N4CCCCC4)C3(C)C)CC[C@]3(C)[C@H](CC[C@@H]4[C@@]5(C)CC[C@H](O)C(C)(C)[C@@H]5CC[C@]43C)[C@@H]12 [Example 11, (1R,3aS,5aR,5bR,7aR,9S,11aR,11bR,13aR,13bR)-N-((1S,3R)-2,2-dimethyl-3-(piperidine-1-carbonyl)cyclobutyl)-9-hydroxy-5a,5b,8,8,11a-pentamethyl-1-(prop-1-en-2-yl)icosahydro-1H-cyclopenta[a]chrysene-3a-carboxamide] | > 20 | 5880 | 3.4 | 4250 | 4.7 | 5670 | 3.5 | – | – | –
4 | C=C(C)[C@@H]1CC[C@]2(C(=O)N[C@@H]3C=C[C@H](CN4CCOCC4)C3)CC[C@]3(C)[C@H](CC[C@@H]4[C@@]5(C)CC[C@H](OC(=O)CC(C)(C)C(=O)O)C(C)(C)[C@@H]5CC[C@]43C)[C@@H]12 [Example 95, 2,2-dimethyl-4-oxo-4-((1R,3aS,5aR,5bR,7aR,9S,11aR,11bR,13aR,13bR)-5a,5b,8,8,11a-pentamethyl-3a-((1S,4R)-4-(morpholinomethyl)cyclopent-2-enylcarbamoyl)-1-(prop-1-en-2-yl)icosahydro-1H-cyclopenta[a]chrysen-9-yloxy)butanoic acid] | > 20 | – | – | 4 | 5000 | – | 20000 | 3 | 1 | –
5 | C=C(C)[C@@H]1CC[C@]2(C(=O)N[C@H]3C[C@@H](C(=O)N4CCCCC4)C3(C)C)CC[C@]3(C)[C@H](CC[C@@H]4[C@@]5(C)CC[C@H](OC(=O)CC(C)(C)C(=O)O)C(C)(C)[C@@H]5CC[C@]43C)[C@@H]12 [Example 12, 4-((1R,3aS,5aR,5bR,7aR,9S,11aR,11bR,13aR,13bR)-3a-((1S,3R)-2,2-dimethyl-3-(piperidine-1-carbonyl)cyclobutylcarbamoyl)-5a,5b,8,8,11a-pentamethyl-1-(prop-1-en-2-yl)icosahydro-1H-cyclopenta[a]chrysen-9-yloxy)-2,2-dimethyl-4-oxobutanoic acid] | > 20 | 17 | 383 | – | 316 | 29 | 227 | – | – | 21
6 | C=C(C)[C@@H]1CC[C@]2(C(=O)N[C@H]3C[C@@H](C(=O)N4CCOCC4)C3(C)C)CC[C@]3(C)[C@H](CC[C@@H]4[C@@]5(C)CC[C@H](OC(=O)CC(C)(C)C(=O)O)C(C)(C)[C@@H]5CC[C@]43C)[C@@H]12 [Example 9, 4-((1R,3aS,5aR,5bR,7aR,9S,11aR,11bR,13aR,13bR)-3a-((1S,3R)-2,2-dimethyl-3-(morpholine-4-carbonyl)cyclobutylcarbamoyl)-5a,5b,8,8,11a-pentamethyl-1-(prop-1-en-2-yl)icosahydro-1H-cyclopenta[a]chrysen-9-yloxy)-2,2-dimethyl-4-oxobutanoic acid] | > 20 | 8 | 2429 | – | 3579 | 7 | 2658 | – | – | 5
7 | C=C(C)[C@@H]1CC[C@]2(C(=O)N3CCC(Cc4ccccc4)(C(=O)OCC)CC3)CC[C@]3(C)[C@H](CC[C@@H]4[C@@]5(C)CC[C@H](OC(=O)CC(C)(C)C(=O)O)C(C)(C)[C@@H]5CC[C@]43C)[C@@H]12 [Example 57, 4-((1R,3aS,5aR,5bR,7aR,9S,11aR,11bR,13aR,13bR)-3a-(4-benzyl-4-(ethoxycarbonyl)piperidine-1-carbonyl)-5a,5b,8,8,11a-pentamethyl-1-(prop-1-en-2-yl)icosahydro-1H-cyclopenta[a]chrysen-9-yloxy)-2,2-dimethyl-4-oxobutanoic acid] | > 20 | 1070 | 20 | 857 | 23 | 590 | 33 | – | – | –
8 | C=C(C)[C@@H]1CC[C@]2(C(=O)N3CCC(CC)(C(=O)OCC)CC3)CC[C@]3(C)[C@H](CC[C@@H]4[C@@]5(C)CC[C@H](OC(=O)CC(C)(C)C(=O)O)C(C)(C)[C@@H]5CC[C@]43C)[C@@H]12 [Example 74, 4-((1R,3aS,5aR,5bR,7aR,9S,11aR,11bR,13aR,13bR)-3a-(4-(ethoxycarbonyl)-4-ethylpiperidine-1-carbonyl)-5a,5b,8,8,11a-pentamethyl-1-(prop-1-en-2-yl)icosahydro-1H-cyclopenta[a]chrysen-9-yloxy)-2,2-dimethyl-4-oxobutanoic acid] | 7.76 | 163 | 47 | 165 | 47 | 86 | 90 | – | – | –
9 | C=C(C)[C@@H]1CC[C@]2(C(=O)N[C@@H]3CC[C@H](CN4CCN(CC)CC4)C3)CC[C@]3(C)[C@H](CC[C@@H]4[C@@]5(C)CC[C@H](OC(=O)CC(C)(C)C(=O)O)C(C)(C)[C@@H]5CC[C@]43C)[C@@H]12 [Example 36, 4-((1R,3aS,5aR,5bR,7aR,9S,11aR,11bR,13aR,13bR)-3a-((1R,3S)-3-((4-ethylpiperazin-1-yl)methyl)cyclopentylcarbamoyl)-5a,5b,8,8,11a-pentamethyl-1-(prop-1-en-2-yl)icosahydro-1H-cyclopenta[a]chrysen-9-yloxy)-2,2-dimethyl-4-oxobutanoic acid] | > 20 | 5 | 4000 | 5 | 4000 | 4 | 5000 | – | – | –
10 | C=C(C)[C@@H]1CC[C@]2(C(=O)N[C@@H]3CC[C@H](CN4CCC(Cc5ccccc5)CC4)C3)CC[C@]3(C)[C@H](CC[C@@H]4[C@@]5(C)CC[C@H](OC(=O)CC(C)(C)CC(=O)O)C(C)(C)[C@@H]5CC[C@]43C)[C@@H]12 [Example 94, 5-((1R,3aS,5aR,5bR,7aR,9S,11aR,11bR,13aR,13bR)-3a-((1R,3S)-3-((4-benzylpiperidin-1-yl)methyl)cyclopentylcarbamoyl)-5a,5b,8,8,11a-pentamethyl-1-(prop-1-en-2-yl)icosahydro-1H-cyclopenta[a]chrysen-9-yloxy)-3,3-dimethyl-5-oxopentanoic acid] | 4 | 26 | 153 | 23 | 173 | 19 | 210 | – | – | –
11 | C=C(C)[C@@H]1CC[C@]2(C(=O)N[C@H]3C[C@@H](C(=O)N4CCOCC4)C3(C)C)CC[C@]3(C)[C@H](CC[C@@H]4[C@@]5(C)CC[C@H](O)C(C)(C)[C@@H]5CC[C@]43C)[C@@H]12 [Example 8, (1R,3aS,5aR,5bR,7aR,9S,11aR,11bR,13aR,13bR)-N-((1S,3R)-2,2-dimethyl-3-(morpholine-4-carbonyl)cyclobutyl)-9-hydroxy-5a,5b,8,8,11a-pentamethyl-1-(prop-1-en-2-yl)icosahydro-1H-cyclopenta[a]chrysene-3a-carboxamide] | 20 | 2830 | 7 | 2200 | 9 | 3140 | 6 | – | – | –
